# Assay results published in patent US20080200405A1, “Drug Resistance Reversal In Neoplastic Disease” (priority 2007, published 2008).
# Assays:
# TNFα = assay: Measurement of LPS Induced-TNFα in THP-1 Cells; format: cell-based, human; conditions: compound 10 uM, 5 ng/mL LPS
# [1] = tested on: bFGF-induced angiogenesis in the CAM model; assay: bFGF (FGF2)-stimulated CAM model; format: in vivo, chicken; conditions: for Mean % Inhibition ± SD / Mean Branch points ± SEM: bFGF 1 μg/ml
# [2] = In vitro stability of OT-551 in rat plasma; format: in vitro ADME
# Protocol: (§1) The active metabolite of OT-551 (Cyclopropanecarboxylic acid 1-hydroxy-2,2,6,6-tetramethyl-piperidin-4-yl ester) is TP-H. The objective of this analysis was to determine the in vitro half-life of OT-551 in rat, rabbit, dog, and human plasma under standardized incubation conditions.
# (§2) OT-551 was incubated with pooled rat, rabbit, dog, and human plasma for various times under standardized incubation conditions. Pre-labeled tubes containing pooled plasma from rats, rabbits, dogs, and humans were pre-incubated in a shaking 37° C. water bath. A OT-551 solution was added to the tubes at a final concentration of 1000 ng/mL. Time zero samples (n=5) were immediately removed and transferred into tubes containing a stabilizer solution (DTPA, acetylcysteine and ascorbic acid), the LC/MS/MS assay internal standard and methanol. […] The tubes were vortexed, placed on ice, followed by centrifugation. One hundred-μL aliquots of the supernatant were transferred into HPLC sample vials. Additional tubes (n=5 at each time point) were incubated for 5, 10, 20, 30, 60, 120, and 240 minutes at 37° C. and thereafter processed. The amount of OT-551 and TP-H in each incubated sample was quantified using validated LC/MS/MS assays.
# [3] = In vitro stability of OT-551 in rabbit plasma; format: in vitro ADME
# Protocol: as §1, §2
# [4] = In vitro stability of OT-551 in dog plasma; format: in vitro ADME
# Protocol: as §1, §2
structure (smiles),measurement,setting,value
CC1(C)CC(O)CC(C)(C)N1O [TEMPOL-H],Mean Percent Inhibition of TNF-alpha using 5 ng/mL LPS,TNFα,74 ± 8%
same,inhibition of bFGF-induced angiogenesis,[1]; 100-400 μg,dose-dependent inhibition
same,Mean % Inhibition ± SD,[1]; 100 μg,20 ± 12%
same,Mean Branch points ± SEM,[1]; 100 μg,172 ± 12.4
same,Mean % Inhibition ± SD,[1]; 200 μg,45.3 ± 7.5 %
same,Mean Branch points ± SEM,[1]; 200 μg,147.2 ± 7.5
same,Mean % Inhibition ± SD,[1]; 400 μg,58.7 ± 10.9 %
same,Mean Branch points ± SEM,[1]; 400 μg,133.8 ± 10.8
same,Mean % Inhibition ± SD,[1]; 800 μg,28.1 ± 6.8 %
same,Mean Branch points ± SEM,[1]; 800 μg,164.2 ± 6.7
same,Concentrations (ng/mL) of TP-H in Rat Plasma,[2]; OT-551 incubation time 0 min,10.23 ± 1.59 ng/mL
same,Concentrations (ng/mL) of TP-H in Rat Plasma,[2]; OT-551 incubation time 5 min,30.47 ± 1.65 ng/mL
same,Concentrations (ng/mL) of TP-H in Rat Plasma,[2]; OT-551 incubation time 10 min,50.91 ± 2.11 ng/mL
same,Concentrations (ng/mL) of TP-H in Rat Plasma,[2]; OT-551 incubation time 20 min,86.30 ± 3.30 ng/mL
same,Concentrations (ng/mL) of TP-H in Rat Plasma,[2]; OT-551 incubation time 30 min,119.63 ± 7.08 ng/mL
same,Concentrations (ng/mL) of TP-H in Rat Plasma,[2]; OT-551 incubation time 60 min,201.94 ± 4.19 ng/mL
same,Concentrations (ng/mL) of TP-H in Rat Plasma,[2]; OT-551 incubation time 120 min,304.66 ± 7.27 ng/mL
same,Concentrations (ng/mL) of TP-H in Rat Plasma,[2]; OT-551 incubation time 240 min,362.66 ± 7.50 ng/mL
same,Concentrations (ng/mL) of TP-H in Rabbit Plasma,[3]; OT-551 incubation time 0 min,270.55 ± 35.45 ng/mL
same,Concentrations (ng/mL) of TP-H in Rabbit Plasma,[3]; OT-551 incubation time 5 min,587.17 ± 21.99 ng/mL
same,Concentrations (ng/mL) of TP-H in Rabbit Plasma,[3]; OT-551 incubation time 10 min,604.21 ± 21.99 ng/mL
same,Concentrations (ng/mL) of TP-H in Rabbit Plasma,[3]; OT-551 incubation time 20 min,590.06 ± 40.97 ng/mL
same,Concentrations (ng/mL) of TP-H in Rabbit Plasma,[3]; OT-551 incubation time 30 min,533.01 ± 117.40 ng/mL
same,Concentrations (ng/mL) of TP-H in Rabbit Plasma,[3]; OT-551 incubation time 60 min,569.19 ± 32.96 ng/mL
same,Concentrations (ng/mL) of TP-H in Rabbit Plasma,[3]; OT-551 incubation time 120 min,525.63 ± 10.31 ng/mL
same,Concentrations (ng/mL) of TP-H in Rabbit Plasma,[3]; OT-551 incubation time 240 min,477.54 ± 40.95 ng/mL
same,Concentrations (ng/mL) of TP-H in Dog Plasma,[4]; OT-551 incubation time 0 min,0.00 ± 0.00 ng/mL
same,Concentrations (ng/mL) of TP-H in Dog Plasma,[4]; OT-551 incubation time 5 min,5.85 ± 0.73 ng/mL
same,Concentrations (ng/mL) of TP-H in Dog Plasma,[4]; OT-551 incubation time 10 min,8.77 ± 0.65 ng/mL
same,Concentrations (ng/mL) of TP-H in Dog Plasma,[4]; OT-551 incubation time 20 min,12.79 ± 0.74 ng/mL
same,Concentrations (ng/mL) of TP-H in Dog Plasma,[4]; OT-551 incubation time 30 min,16.22 ± 0.67 ng/mL
same,Concentrations (ng/mL) of TP-H in Dog Plasma,[4]; OT-551 incubation time 60 min,25.68 ± 1.04 ng/mL
same,Concentrations (ng/mL) of TP-H in Dog Plasma,[4]; OT-551 incubation time 120 min,39.31 ± 1.09 ng/mL
same,Concentrations (ng/mL) of TP-H in Dog Plasma,[4]; OT-551 incubation time 240 min,53.92 ± 1.68 ng/mL
"CC1(C)CC(OC(=O)C2CC2)CC(C)(C)N1O.Cl [OT-551, 1-hydroxy-4-cyclopropanecarbonyloxy-2,2,6,6-tetramethylpiperidine hydrochloride]",inhibition at 10 µM,"TNFα; Homo sapiens, THP-1, read-out: Mean Percent Inhibition of TNF-alpha using 5 ng/mL LPS",68 ± 6%
same,inhibition in vivo at 0.03 mg,"[1]; Gallus gallus, bFGF/FGF2 1 ug, 30 ug injected, read-out: % Inhibition ± SEM",74 ± 4%
same,Branch pts ± SEM,"[1]; bFGF/FGF2 1 ug, 30 ug injected",87 ± 3
same,Concentrations (ng/mL) of OT-551 in Rat Plasma,[2]; incubation time 0 min,806.50 ± 86.77 ng/mL
same,Concentrations (ng/mL) of OT-551 in Rat Plasma,[2]; incubation time 5 min,770.32 ± 20.66 ng/mL
same,Concentrations (ng/mL) of OT-551 in Rat Plasma,[2]; incubation time 10 min,745.77 ± 15.50 ng/mL
same,Concentrations (ng/mL) of OT-551 in Rat Plasma,[2]; incubation time 20 min,682.88 ± 16.94 ng/mL
same,Concentrations (ng/mL) of OT-551 in Rat Plasma,[2]; incubation time 30 min,613.79 ± 25.84 ng/mL
same,Concentrations (ng/mL) of OT-551 in Rat Plasma,[2]; incubation time 60 min,480.48 ± 10.69 ng/mL
same,Concentrations (ng/mL) of OT-551 in Rat Plasma,[2]; incubation time 120 min,277.94 ± 5.55 ng/mL
same,Concentrations (ng/mL) of OT-551 in Rat Plasma,[2]; incubation time 240 min,80.70 ± 2.02 ng/mL
same,Concentrations (ng/mL) of OT-551 in Rabbit Plasma,[3]; incubation time 0 min,502.75 ± 74.66 ng/mL
same,Concentrations (ng/mL) of OT-551 in Rabbit Plasma,[3]; incubation time 5 min,14.56 ± 3.35 ng/mL
same,Concentrations (ng/mL) of OT-551 in Rabbit Plasma,[3]; incubation time 10 min,0.00 ± 0.00 ng/mL
same,Concentrations (ng/mL) of OT-551 in Rabbit Plasma,[3]; incubation time 20 min,0.00 ± 0.00 ng/mL
same,Concentrations (ng/mL) of OT-551 in Rabbit Plasma,[3]; incubation time 30 min,0.00 ± 0.00 ng/mL
same,Concentrations (ng/mL) of OT-551 in Rabbit Plasma,[3]; incubation time 60 min,0.00 ± 0.00 ng/mL
same,Concentrations (ng/mL) of OT-551 in Rabbit Plasma,[3]; incubation time 120 min,0.00 ± 0.00 ng/mL
same,Concentrations (ng/mL) of OT-551 in Rabbit Plasma,[3]; incubation time 240 min,0.00 ± 0.00 ng/mL
same,Concentrations (ng/mL) of OT-551 in Dog Plasma,[4]; incubation time 0 min,771.12 ± 21.68 ng/mL
same,Concentrations (ng/mL) of OT-551 in Dog Plasma,[4]; incubation time 5 min,804.93 ± 17.45 ng/mL
same,Concentrations (ng/mL) of OT-551 in Dog Plasma,[4]; incubation time 10 min,811.14 ± 21.06 ng/mL
same,Concentrations (ng/mL) of OT-551 in Dog Plasma,[4]; incubation time 20 min,809.01 ± 18.58 ng/mL
same,Concentrations (ng/mL) of OT-551 in Dog Plasma,[4]; incubation time 30 min,789.53 ± 13.73 ng/mL
same,Concentrations (ng/mL) of OT-551 in Dog Plasma,[4]; incubation time 60 min,717.22 ± 25.73 ng/mL
same,Concentrations (ng/mL) of OT-551 in Dog Plasma,[4]; incubation time 120 min,608.14 ± 25.96 ng/mL
same,Concentrations (ng/mL) of OT-551 in Dog Plasma,[4]; incubation time 240 min,428.20 ± 12.03 ng/mL
